Ends that are not written are not given here.
Target: T1, KITENIN homodimer (Homo sapiens, UniProt Q8TAA9)
T1 construct: Lysates of 293T cells expressing full‐length KITENIN‐myc; expressed in transfected cells; host or cells: Caco2
T1 sequence (Q8TAA9 1-524): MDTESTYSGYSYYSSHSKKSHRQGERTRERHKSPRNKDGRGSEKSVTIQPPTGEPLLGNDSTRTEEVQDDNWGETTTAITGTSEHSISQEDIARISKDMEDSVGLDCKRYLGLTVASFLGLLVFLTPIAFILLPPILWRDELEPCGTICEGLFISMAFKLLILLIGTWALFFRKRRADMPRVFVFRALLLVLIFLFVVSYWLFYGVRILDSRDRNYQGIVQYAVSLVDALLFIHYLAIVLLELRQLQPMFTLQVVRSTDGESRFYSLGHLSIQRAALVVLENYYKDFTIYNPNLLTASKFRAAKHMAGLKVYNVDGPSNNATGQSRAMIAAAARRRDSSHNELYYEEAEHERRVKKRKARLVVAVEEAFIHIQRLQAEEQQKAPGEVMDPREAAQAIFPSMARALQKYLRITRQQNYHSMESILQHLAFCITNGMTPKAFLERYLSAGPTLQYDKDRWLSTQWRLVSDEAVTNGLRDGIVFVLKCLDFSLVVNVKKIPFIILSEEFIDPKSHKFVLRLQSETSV
Test: In vitro pull-down of purified KITENIN-GST and KITENIN-His
Type: biochemical
Conditions: KDIP 5 μM, 4°C, 2 h, GST pull-down
Experimental: GST‐KITENIN or its derivatives were immobilized on glutathione‐sepharose beads. Myc‐tagged KITENIN was incubated with GST‐tagged KITENIN or its derivative proteins immobilized on glutathione‐sepharose as indicated. The bound protein complexes were eluted and analysed by SDS–PAGE followed by IB. To detect in vitro KITENIN homodimerization, […] GST‐KITENIN was incubated with Ni‐NTA‐purified KITENIN‐His and KDIP (5 μM) in the pull‐down buffer (50‐mM Tris.Cl [pH 7.5], 1‐mM dithiothreitol [DTT] 4% [v/v] glycerol, .1 mg/ml of BSA, 5‐mM MgCl2, 1‐mM ATP and 50‐mM NaCl) at 4°C for 2 h. […]
FIGURE 2 KAI1 C‐terminal interacting tetraspanin (KITENIN) dimerization‐interfering peptide (KDIP) suppresses KITENIN‐induced enhanced cell invasion through the inhibition of the homodimerization of KITENIN. […] After 48 h of treatment, KITENIN transcripts in cells were analysed by the 2^−ΔΔ ^CT method using Q‐PCR. […] Caco2 cells were co‐transfected with KITENIN‐V5/Myc and treated with or without KDIP or scrambled peptide (scr) and were immunoprecipitated with anti‐V5 antibody and detected by indicated antibodies. Numerals indicated a quantification of the MYC bands normalized to the corresponding V5 bands (left panel). […] The histogram represents invading cells, which were counted at four chosen areas and shown by bar graphs (mean ± SEM, n = 4, ^** p < .01). […]

## YARVRRRGPRRWRLVSDEAV [KDIP]
  dimerization of purified KITENIN proteins in vitro (in words): directly reduced
